Data as given in US20120004228A1, “Bis Aromatic Compounds for Use as LTC4 Synthase Inhibitors” (BIOLIPOX AB, priority 2009, published 2012).

molecular target: T1, Recombinant human LTC4 synthase (Homo sapiens, UniProt Q16873); experiment: In vitro LTC4 synthase assay (LTA4 to LTC4, HTRF detection); type: biochemical; conditions: not given
T1 construct: made in house; host or cells: Pichia pastoris ('Piccia pastoralis' [sic])
T1 sequence (Q16873 1-150): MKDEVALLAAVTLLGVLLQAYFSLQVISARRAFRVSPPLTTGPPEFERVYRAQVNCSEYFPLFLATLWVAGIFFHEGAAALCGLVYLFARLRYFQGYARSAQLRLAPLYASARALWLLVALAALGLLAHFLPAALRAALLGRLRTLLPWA
Method: In the assay, LTC4 synthase catalyses the reaction where the substrate LTA4 is converted to LTC4. Recombinant human LTC4 synthase is expressed in Piccia pastoralis and the purified enzyme is dissolved in 25 mM tris-buffer pH 7.8 supplemented with 0.1 mM glutathione (GSH) and stored at −80° C. The assay is performed in phosphate buffered saline (PBS) pH 7.4 and 5 mM GSH in 384-well plates.
The following is added chronologically to each well:
1. 48 μL LTC4 synthase in PBS with 5 mM GSH. The total protein concentration in this solution is 0.5 μg/mL. 2. 1 μL inhibitor in DMSO (final concentration 10 μM). 3. Incubation of the plate at room temperature for 10 min. 4. 1 μL LTA4 (final concentration 2.5 μM). 5. Incubation of the plate at room temperature for 5 min. 6. 10 μL of the incubation mixture is analysed using homogenous time resolved fluorescent (HTRF) detection.

Structure (SMILES)	IC50 [nM]
CCCCCCC(=O)Nc1cc(C(=O)O)cc(C(=O)c2ccc(N(C)c3ccc(Cl)cc3)cc2)c1 [Example 1:2, 3-{4-[(4-Chlorophenyl)(methyl)amino]benzoyl}-5-heptylamidobenzoic acid]	139
C#CCN(c1ccccc1)c1cc(C(=O)O)cc(C(=O)c2ccc(N(C)c3ccc(Cl)cc3)cn2)c1 [9:8, 3-{5-[(4-Chlorophenyl)(methyl)amino]picolinoyl}-5-[phenyl(prop-2-ynyl)amino]-benzoic acid]	43
COc1ccc(N(C)c2cc(C(=O)O)cc(C(=O)c3ccc(N(C)c4ccc(Cl)cc4)cn3)c2)cc1 [9:28, 3-{5-[(4-Chlorophenyl)(methyl)amino]picolinoyl}-5-[(4-methoxyphenyl)(methyl)-amino]benzoic acid]	137
CN(c1ccc(Cl)cc1)c1ccc(C(=O)c2cc(C(=O)O)cc(N(C(=O)C3CCC3)c3ccccc3)c2)cc1 [Example 10:31, 3-{4-[(4-Chlorophenyl)(methyl)amino]benzoyl}-5-[(N-phenyl)cyclobutylcarboxamido]benzoic acid]	277
CC(=O)N(c1cc(C(=O)O)cc(C(=O)c2ccc(N(C)c3ccc(Cl)cc3)cn2)c1)C1CCCCC1 [9:43, 3-{5-[(4-Chlorophenyl)(methyl)amino]picolinoyl}-5-(N-cyclohexylacetamido)-benzoic acid]	1820
O=C(O)c1cc(Nc2ccccc2)cc(C(=O)c2ccc(N(CC3CC3)c3ccc(Cl)cc3)cn2)c1 [9:20, 3-{5-[(4-Chlorophenyl)(cyclopropylmethyl)amino]picolinoyl}-5-(phenylamino)-benzoic acid]	30
CN(c1ccc(Cl)cc1)c1ccc(C(=O)c2cc(Oc3ccccc3Cl)cc(C(=O)O)c2)nc1 [8:8, 3-(2-Chlorophenoxy)-{5-[(4-chlorophenyl)(methyl)amino]picolinoyl}benzoic acid]	77
CN(c1ccc(Cl)cc1)c1ccc(C(=O)c2ccc(Nc3ccc(Cl)cc3)cc2)c(C(=O)O)c1 [6:3, 2-[4-(4-Chlorophenylamino)benzoyl]-5-[(4-chlorophenyl)(methyl)amino]-benzoic acid]	224
CC(C)OCC(O)CN(c1ccccc1)c1cc(C(=O)O)cc(C(=O)c2ccc(N(C)c3ccc(Cl)cc3)cc2)c1 (stereo not drawn) [Example 10:38, 3-{4-[(4-Chlorophenyl)(methyl)amino]benzoyl}-5-[(2-hydroxy-3-isopropoxy-propyl)(phenyl)amino]benzoic acid]	183
CN(c1ccc(Cl)cc1)c1ccc(C(=O)c2cc(C(=O)O)cc(N(C(=O)CC3CCCC3)c3ccccc3)c2)cc1 [10:39, 3-{4-[(4-Chlorophenyl)(methyl)amino]benzoyl}-5-[2-cyclopentyl-(N-phenyl)-acetamido]benzoic acid]	192
CN(c1ccc(Cl)cc1)c1ccc(C(=O)c2cc(Oc3ccc(C#N)cc3)cc(C(=O)O)c2)nc1 [8:7, 3-{5-[(4-Chlorophenyl)(methyl)amino]picolinoyl}-5-(4-cyanophenoxy)benzoic acid]	274
COc1ccccc1Oc1cc(C(=O)O)cc(C(=O)c2ccc(N(C)c3ccc(Cl)cc3)cn2)c1 [8:4, 3-{5-[(4-Chlorophenyl)(methyl)amino]picolinoyl}-5-(2-methoxyphenoxy)benzoic acid]	525
CN(c1ccc(Cl)cc1)c1ccc(C(=O)c2cc(Oc3ccccc3)cc(C(=O)O)c2)nc1 [Example 8:1, 3-{5-[(4-Chlorophenyl)(methyl)aminol]picolinoyl}-5-phenoxybenzoic acid]	67
CN(c1ccc(Cl)cc1)c1ccc(C(=O)c2cc(C(=O)O)cc(N(C(=O)CC(C)(C)C)c3ccccc3)c2)nc1 [9:18, 3-{5-[(4-Chlorophenyl)(methyl)amino]picolinoyl}-5-(3,3-dimethyl-N-phenyl-butylamido)benzoic acid]	160
CN(c1ccc(Cl)cc1)c1ccc(C(=O)c2cc(C(=O)O)cc(-c3ccccc3Cl)c2)nc1 [12:3, 2′-Chloro-5-{5-[(4-chlorophenyl)(methyl)amino]picolinoyl}biphenyl-3-carboxylic acid]	234
CN(c1ccc(Cl)cc1)c1ccc(C(=O)c2cc(C(=O)O)cc(N(CC3CC3)c3ccccc3)c2)nc1 [Example 9:7, 3-{5-[(4-Chlorophenyl)(methyl)amino]picolinoyl}-5-[(cyclopropylmethyl)(phenyl)-amino]benzoic acid]	32
COc1cccc(COc2cc(C(=O)O)cc(C(=O)c3ccc(N(C)c4ccc(Cl)cc4)cn3)c2)c1 [11:3, 3-{5-[(4-Chlorophenyl)(methyl)amino]picolinoyl}-5-(3-methoxybenzyloxy)-benzoic acid]	250
COCCN(c1ccccc1)c1cc(C(=O)O)cc(C(=O)c2ccc(N(C)c3ccc(Cl)cc3)cc2)c1 [10:26, 3-{4-[(4-Chlorophenyl)(methyl)amino]benzoyl}-5-[(2-methoxyethyl)(phenyl)-amino]benzoic acid]	74

The remaining lines, values ahead:

IC50 [nM]	Structure (SMILES)
744	COc1ccc(NC(=O)c2cc(C(=O)O)cc(C(=O)c3ccc(N(C)c4ccc(Cl)cc4)cn3)c2)cc1 [2:6, 3-{5-[(4-Chlorophenyl)(methyl)amino]picolinoyl}-5-(4-methoxyphenyl-carbamoyl)benzoic acid]
33	CCN(c1ccccc1)c1cc(C(=O)O)cc(C(=O)c2ccc(N(C)c3ccc(Cl)cc3)cc2)c1 [10:19, 3-{4-[(4-Chlorophenyl)(methyl)amino]benzoyl}-5-[ethyl(phenyl)amino]benzoic acid]
538	CN(c1ccc(Cl)cc1)c1ccc(C(=O)c2cc(C(=O)O)cc(C(=O)Nc3ccccc3Cl)c2)nc1 [2:2, 3-{5-[(4-Chlorophenyl)(methyl)amino]picolinoyl}-5-(2-chlorophenyl-carbamoyl)-benzoic acid]
162	CN(c1ccc(Cl)cc1)c1ccc(C(=O)c2cc(Nc3ccccc3F)cc(C(=O)O)c2)cc1 [10:9, 3-{4-[(4-Chlorophenyl)(methyl)amino]benzoyl}-5-(2-fluorophenylamino)-benzoic acid]
75	CN(c1ccc(Cl)cc1)c1ccc(C(=O)c2cc(NCc3ccc(Cl)cc3Cl)cc(C(=O)O)c2)cc1 [10:14, 3-{4-[(4-Chlorophenyl)(methyl)amino]benzoyl}-5-(2,4-dichlorobenzylamino)-benzoic acid]
424	CN(c1ccc(Cl)cc1)c1ccc(C(=O)c2cc(C(=O)O)cc(C(=O)Nc3ccc4c(c3)OC(F)(F)O4)c2)cc1 [2:12, 3-{4-[(4-Chlorophenyl)(methyl)amino]benzoyl}-5-[3,4-(difluoromethylene-dioxy)phenylcarbamoyl]benzoic acid]
146	CN(c1ccc(Cl)cc1)c1ccc(C(=O)c2cc(C(=O)O)cc(C(=O)c3ccccc3)c2)nc1 [Example 14, 3-Benzoyl-5-{5-[(4-chlorophenyl)(methyl)amino]picolinoyl}benzoic acid]
549	CN(c1ccc(Cl)cc1)c1ccc(C(=O)c2cc(NC(=O)c3cccc(C(F)(F)F)c3)cc(C(=O)O)c2)nc1 [Example 2:7, 3-{5-[(4-Chlorophenyl)(methyl)amino]picolinoyl}-5-[3-(trifluoromethyl)benzamido]-benzoic acid]
80	CN(c1ccc(Cl)cc1)c1ccc(C(=O)c2cc(Oc3ccccc3Cl)cc(C(=O)O)c2)cc1 [8:19, 3-(2-Chlorophenoxy)-5-{4-[(4-chlorophenyl)(methyl)amino]benzoyl}benzoic acid]
40	CN(c1ccc(Cl)cc1)c1ccc(C(=O)c2cc(C(=O)O)cc(N(C)c3ccccc3)c2)cc1 [Example 10:23, 5-{4-[(4-Chlorophenyl)(methyl)amino]benzoyl}-3-[methyl(phenyl)amino]benzoic acid]
49	CN(c1ccc(Cl)cc1)c1ccc(C(=O)c2cc(Oc3ccc(Cl)cc3)cc(C(=O)O)c2)cc1 [8:21, 3-(4-Chlorophenoxy)-5-{4-[(4-chlorophenyl)(methyl)amino]benzoyl}benzoic acid]
390	CN(c1ccc(Cl)cc1)c1ccc(C(=O)c2cc(C(=O)O)cc(C(=O)Nc3cccc(Cl)c3)c2)nc1 [2:4, 3-{5-[(4-Chlorophenyl)(methyl)amino]picolinoyl}-5-(3-chlorophenyl-carbamoyl)-benzoic acid]
40	CN(c1ccc(Cl)cc1)c1ccc(C(=O)c2cc(C(=O)O)cc(N(C)c3ccccc3F)c2)cc1 [10:24, 3-{4-[(4-Chlorophenyl)(methyl)amino]benzoyl}-5-[(2-fluorophenyl)(methyl)-amino]benzoic acid]
159	CN(c1ccc(Cl)cc1)c1ccc(C(=O)c2cc(Nc3ccc(C(F)(F)F)cc3)cc(C(=O)O)c2)cc1 [10:17, 3-{4-[(4-Chlorophenyl)(methyl)amino]benzoyl}-5-(4-trifluoromethylphenyl-amino)benzoic acid]
64	CN(c1ccc(Cl)cc1)c1ccc(C(=O)c2cc(Nc3ccc(Cl)cc3)cc(C(=O)O)c2)cc1 [Example 10:2, 3-{4-[(4-Chlorophenyl)(methyl)amino]benzoyl}-5-(4-chlorophenylamino)-benzoic acid]
273	COc1cccc(Nc2cc(C(=O)O)cc(C(=O)c3ccc(N(C)c4ccc(Cl)cc4)cc3)c2)c1 [Example 10:3, 3-{4-[(4-Chlorophenyl)(methyl)amino]benzoyl}-5-(3-methoxyphenylamino)-benzoic acid]

same assay, conditions: 5 min; total concentration of title compound in the assay 10 μM

Structure (SMILES)	inhibition at 10 µM [%]
CCCCCCC(=O)Nc1cc(C(=O)O)cc(C(=O)c2ccc(N(C)c3ccc(Cl)cc3)cc2)c1 [Example 1:2, 3-{4-[(4-Chlorophenyl)(methyl)amino]benzoyl}-5-heptylamidobenzoic acid]	94
CN(c1ccc(Cl)cc1)c1ccc(C(=O)c2ccc(Nc3ccc(Cl)cc3)cc2)c(C(=O)O)c1 [6:3, 2-[4-(4-Chlorophenylamino)benzoyl]-5-[(4-chlorophenyl)(methyl)amino]-benzoic acid]	99
